Test results taken from PMC6529454, “Development of human cGAS-specific small-molecule inhibitors for repression of dsDNA-triggered interferon expression” (Nature Communications, 2019).
Read-outs that look alike come from different tables or passages of the source.

Experiments:
[1] = test system: 45-bp dsDNA; assay: dsDNA intercalation fluorescence polarization assay (acridine orange); assay type: binding; details: for Polarization: compound at 30 µM
[2] = molecular target: T1, h-cGAS (Homo sapiens, UniProt Q8N884); assay: RapidFire mass spectrometry (RF-MS) cGAS activity assay, h-cGAS
[3] = molecular target: m-cGAS (Mus musculus, UniProt Q8C6L5); assay: RapidFire mass spectrometry (RF-MS) cGAS activity assay, m-cGAS
[4] = molecular target: T1, h-cGAS; assay: ATP-coupled luminescence (LUM, Kinase-Glo) high-throughput assay, h-cGAS; assay type: biochemical; design: His6-SUMO (N, cleaved yes); made in house; host or cells: E. coli BL21-CodonPlus(DE3)-RIL
[5] = test system: cGAS in THP1 cells; assay: dsDNA-stimulated mRNA induction (qRT-PCR) in THP1 cells; assay type: cell-based, human
[6] = h-cGAS IC50, RF-MS, freshly sourced vendor powder
[7] = m-cGAS IC50, RF-MS, freshly sourced vendor powder
[8] = library stock, ten half-dilutions from 25 µM, read-out: h-cGAS IC50 (LUM)
[9] = IC50 h-cGAS, RF-MS, in-house synthesized compounds
[10] = IC50 m-cGAS, RF-MS, in-house synthesized compounds

T1 sequence (Q8N884 whole entry): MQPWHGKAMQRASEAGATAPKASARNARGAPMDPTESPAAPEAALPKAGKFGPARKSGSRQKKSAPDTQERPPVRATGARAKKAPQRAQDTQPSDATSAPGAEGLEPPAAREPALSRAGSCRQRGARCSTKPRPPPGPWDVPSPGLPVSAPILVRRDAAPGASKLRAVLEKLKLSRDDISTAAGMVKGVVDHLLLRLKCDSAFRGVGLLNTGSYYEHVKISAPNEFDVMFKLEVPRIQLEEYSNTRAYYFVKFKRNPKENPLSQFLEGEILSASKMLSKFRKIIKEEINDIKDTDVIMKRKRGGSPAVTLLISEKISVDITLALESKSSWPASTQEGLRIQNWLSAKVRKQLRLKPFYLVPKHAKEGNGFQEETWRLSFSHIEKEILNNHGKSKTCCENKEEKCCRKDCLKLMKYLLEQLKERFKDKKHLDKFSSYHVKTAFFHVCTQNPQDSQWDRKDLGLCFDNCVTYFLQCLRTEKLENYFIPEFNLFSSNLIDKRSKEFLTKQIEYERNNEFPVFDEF
m-cGAS, sequence (Q8C6L5 whole entry): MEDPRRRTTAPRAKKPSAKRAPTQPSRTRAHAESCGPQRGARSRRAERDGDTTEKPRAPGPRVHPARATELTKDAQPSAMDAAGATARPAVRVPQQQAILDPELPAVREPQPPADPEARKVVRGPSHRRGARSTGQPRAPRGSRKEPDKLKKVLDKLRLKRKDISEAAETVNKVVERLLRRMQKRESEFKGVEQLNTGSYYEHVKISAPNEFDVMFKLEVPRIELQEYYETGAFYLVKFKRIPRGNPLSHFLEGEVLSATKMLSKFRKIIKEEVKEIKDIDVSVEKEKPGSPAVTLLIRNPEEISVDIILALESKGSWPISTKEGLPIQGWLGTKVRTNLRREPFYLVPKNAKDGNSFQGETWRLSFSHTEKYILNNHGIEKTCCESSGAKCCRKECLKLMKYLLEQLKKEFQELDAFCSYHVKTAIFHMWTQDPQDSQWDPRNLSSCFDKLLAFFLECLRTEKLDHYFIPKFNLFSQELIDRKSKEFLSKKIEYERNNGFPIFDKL

O=C(O)CN1C(=O)/C(=C\c2cc([N+](=O)[O-])cc(Br)c2O)SC1=S [RU-0010201_AA-001]
% Intercalation at 30 µM [1]: -18.01%
Polarization [1]: 278 mP
IC50 [2, 6]: 3.02 µM
IC50 [3, 7]: 5.77 µM
IC50 [4, 8]: 1.55 µM

Cc1ccc(-n2[nH]c(C(=O)Nc3ccnc4ccnn34)cc2=O)cc1 [RU-0208705_AA-001]
% Intercalation at 30 µM [1]: -20.07%
Polarization [1]: 283 mP
IC50 [2, 6]: 7.82 µM
IC50 [3, 7]: > 50 µM
IC50 [4, 8]: 2.72 µM

N#CC(C(=O)/C=C/c1nccs1)C(=O)Nc1cccc(Cl)c1Cl (stereo not shown) [RU-0183726_AA-001]
% Intercalation at 30 µM [1]: -6.77%
Polarization [1]: 256 mP
IC50 [2, 6]: 4.63 µM
IC50 [3, 7]: 17.3 µM
IC50 [4, 8]: 7.46 µM

Cc1c2c(nc3cc4c(cc13)OCO4)CCc1ccccc1-2 [RU-0093754_AQ-001]
% Intercalation at 30 µM [1]: -2.1%
Polarization [1]: 247 mP
IC50 [2, 6]: 23.1 µM
IC50 [3, 7]: > 50 µM
IC50 [4, 8]: 9.35 µM

O=C(Nc1ccc(Cl)cn1)c1[nH]ncc1[N+](=O)[O-] [J001]
% Intercalation at 30 µM [1]: -7.59%
Polarization [1]: 258 mP
IC50 [2, 9]: 1.04 µM
IC50 [2, 6]: 0.976 µM
IC50 [3, 10]: 0.49 µM
IC50 [3, 7]: 0.972 µM
IC50 [4, 8]: 0.913 µM

NC(=O)n1c(O)c(C(=O)c2cccs2)c2cc(Cl)ccc21 [RU-0187170_AA-001]
% Intercalation at 30 µM [1]: -15.37%
Polarization [1]: 274 mP
IC50 [2, 6]: 1.31 µM
IC50 [3, 7]: 21.5 µM
IC50 [4, 8]: 1.38 µM

O=C(O)Cc1cc(I)c(Oc2cc(I)c(O)c(I)c2)c(I)c1 [RU-0001026_AA-001]
% Intercalation at 30 µM [1]: -15.3%
Polarization [1]: 274 mP
IC50 [2, 6]: 11.9 µM
IC50 [3, 7]: 29.2 µM
IC50 [4, 8]: 6.16 µM

O=C1NC(=S)S/C1=C\c1ccc(-c2ccccc2C(=O)O)o1 [RU-0020238_AA-001]
% Intercalation at 30 µM [1]: -24.96%
Polarization [1]: 292 mP
IC50 [2, 6]: 3.78 µM
IC50 [3, 7]: 9.65 µM
IC50 [4, 8]: 3.59 µM

FC(F)(F)c1nc2cc(Cl)cc(Cl)c2[nH]1 [RU-0005637_AA-001]
% Intercalation at 30 µM [1]: -3.44%
Polarization [1]: 248 mP
IC50 [2, 6]: 2.39 µM
IC50 [3, 7]: > 50 µM
IC50 [4, 8]: 3.38 µM

N=C1/C(=C/c2ccc(O)cc2)C(=O)N=C2SC(c3ccccc3Cl)=NN12 [RU-0169289_AA-001]
% Intercalation at 30 µM [1]: -14.25%
Polarization [1]: 271 mP
IC50 [2, 6]: 5.18 µM
IC50 [3, 7]: 14.9 µM
IC50 [4, 8]: 9.95 µM

O=C(Nc1ncccc1O)c1nc(-c2ccccc2)n2c1CCCCC2 [RU-0208404_AA-001]
% Intercalation at 30 µM [1]: -4.67%
Polarization [1]: 252 mP
IC50 [2, 6]: 13.7 µM
IC50 [3, 7]: > 50 µM
IC50 [4, 8]: 2.48 µM

COCc1nn2c(=O)cc(Cc3ccccc3)[nH]c2c1-c1ccccc1 [RU-0171678_AA-001]
% Intercalation at 30 µM [1]: -2.74%
Polarization [1]: 248 mP
IC50 [2, 6]: > 50 µM
IC50 [3, 7]: > 50 µM
IC50 [4, 8]: 1.37 µM

O=C(CO)N1CCc2[nH]c3c(Cl)c(Br)ccc3c2C1 [G086]
inhibition of IFNB1 mRNA induction in human THP1 cells (in words) [5]: did not inhibit

N#Cc1c(C(F)(F)F)cc(=O)n2c1[nH]c1ccccc12 [RU-0006086_AA-001]
% Intercalation at 30 µM [1]: -13.31%
Polarization [1]: 268 mP
IC50 [2, 6]: 1.05 µM
IC50 [3, 7]: 17.9 µM
IC50 [4, 8]: 0.128 µM

O=c1cc(Cc2ccccc2)[nH]c2c(-c3ccccc3)c(C(F)(F)F)nn12 [RU-0168658_AA-001]
% Intercalation at 30 µM [1]: -8.74%
Polarization [1]: 260 mP
IC50 [2, 6]: 1.13 µM
IC50 [3, 7]: > 50 µM
IC50 [4, 8]: 1.63 µM

CSC(=S)N/N=C(\c1ccccc1)c1ccccn1 [RU-0172034_AA-001]
% Intercalation at 30 µM [1]: -10.03%
Polarization [1]: 263 mP
IC50 [2, 6]: 7.02 µM
IC50 [3, 7]: > 50 µM
IC50 [4, 8]: 4.69 µM

S=c1[nH]nc(-c2sc3ccccc3c2Cl)o1 [RU-0003433_AA-002]
% Intercalation at 30 µM [1]: -16.75%
Polarization [1]: 277 mP
IC50 [2, 6]: 7.16 µM
IC50 [3, 7]: 16.1 µM
IC50 [4, 8]: 8.68 µM

Cc1ccc2c(=O)c3ccccc3n(CCCN)c2c1C [RU-0187094_AT-001]
% Intercalation at 30 µM [1]: 45.76%
Polarization [1]: 148 mP
IC50 [2, 6]: 1.61 µM
IC50 [3, 7]: 10.3 µM
IC50 [4, 8]: 2.59 µM

Oc1ccccc1C1=NNC2(CC3CC2C2CCCC32)S1 (stereo not shown) [RU-0182153_AA-001]
% Intercalation at 30 µM [1]: -11.48%
Polarization [1]: 266 mP
IC50 [2, 6]: 33.1 µM
IC50 [3, 7]: > 50 µM
IC50 [4, 8]: 4.8 µM

O=C(Nc1cc(-c2ccccc2)ccn1)c1nnc[nH]1 [J073]
IC50 [3, 10]: 4.32 µM

Clc1ccc2c(-n3ccnc3)ccnc2c1 [RU-0166197_AA-001]
% Intercalation at 30 µM [1]: -4.04%
Polarization [1]: 250 mP
IC50 [2]: 2.64 µM
IC50 [3]: 10.8 µM
IC50 [4]: 6.49 µM

COC(=O)C1=NN2C(=NS(=O)(=O)c3ccccc32)N1 [RU-0209189_AA-001]
% Intercalation at 30 µM [1]: -6.61%
Polarization [1]: 256 mP
IC50 [2, 6]: 3.04 µM
IC50 [3, 7]: 3.93 µM
IC50 [4, 8]: 6.64 µM

CCC/N=C\c1c(-c2ccccc2)[nH]n(-c2nc3ccccc3s2)c1=O [RU-0166755_AA-001]
% Intercalation at 30 µM [1]: -3.39%
Polarization [1]: 249 mP
IC50 [2, 6]: 12.8 µM
IC50 [3, 7]: > 50 µM
IC50 [4, 8]: 7.29 µM

COCC(=O)N1CCc2[nH]c3c(Cl)cc(Cl)cc3c2C1 [G001]
% Intercalation at 30 µM [1]: -6.09%
Polarization [1]: 258 mP
IC50 [2, 9]: 2.08 µM
IC50 [2, 6]: 2.75 µM
IC50 [3, 10]: 0.44 µM
IC50 [3, 7]: 1.14 µM
IC50 [4]: 1.2 µM

O=c1c(/C=N\C2CC2)c(-c2ccccc2)[nH]n1-c1nc2ccccc2s1 [RU-0166710_AA-001]
% Intercalation at 30 µM [1]: -5.01%
Polarization [1]: 252 mP
IC50 [2, 6]: 5.27 µM
IC50 [3, 7]: > 50 µM
IC50 [4, 8]: 7.69 µM

O=c1[nH]c2c(Cl)c(Cl)c(Cl)cc2o1 [RU-0002019_AA-001]
% Intercalation at 30 µM [1]: -9.27%
Polarization [1]: 260 mP
IC50 [2, 6]: 8.1 µM
IC50 [3, 7]: 11.6 µM
IC50 [4, 8]: 3.9 µM

Oc1cccc2ccc(Nc3ccccn3)nc12 [RU-0010562_AA-001]
% Intercalation at 30 µM [1]: 10.31%
Polarization [1]: 220 mP
IC50 [2, 6]: 13.2 µM
IC50 [3, 7]: > 50 µM
IC50 [4, 8]: 9.1 µM

O=C(CO)N1CCc2[nH]c3c(F)c(Br)ccc3c2C1 [G092]
inhibition of IFNB1 mRNA induction in human THP1 cells (in words) [5]: did not inhibit

CNC(=O)CSc1nc(=O)n2nc(C)c(-c3ccccc3)c2[nH]1 [RU-0142869_AA-001]
% Intercalation at 30 µM [1]: -8.43%
Polarization [1]: 260 mP
IC50 [2, 6]: 4.78 µM
IC50 [3, 7]: > 50 µM
IC50 [4, 8]: 9.12 µM

CCC(=O)Nc1sc2c(c1-c1nc3ccccc3s1)CCN(CC)C2 [RU-0131894_AQ-001]
% Intercalation at 30 µM [1]: 40.34%
Polarization [1]: 159 mP
IC50 [2, 6]: 0.965 µM
IC50 [3, 7]: 7.51 µM
IC50 [4, 8]: 1.09 µM
